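48-hour exposure; five concentrations; linearly interpolated endpoints. GI50: concentration for 50% inhibition of growth.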 Activity calls are given as the source filed them. Rule as the data show it: active = GI50 up to about 1.1 µM and inactive = higher.
Legend:
Experiment in all cases: inhibition of tumour cell growth, NCI panel, 48 h
UO-31 = test system: UO-31
786-0 = test system: 786-0
A498 = test system: A498
HOP-62 = test system: HOP-62
SF-268 = test system: SF-268
LOX IMVI = test system: LOX IMVI
COLO 205 = test system: COLO 205
SN12C = test system: SN12C
SK-MEL-5 = test system: SK-MEL-5
OVCAR-8 = test system: OVCAR-8
UACC-62 = test system: UACC-62
MDA-N = test system: MDA-N
CAKI-1 = test system: CAKI-1
MDA-MB-435 = test system: MDA-MB-435
HT-29 = test system: HT-29
UACC-257 = test system: UACC-257
MCF7 = test system: MCF7
SF-539 = test system: SF-539
HL-60 = test system: HL-60

Measured: GI50

O=S(=O)(/N=c1/[nH]c2ccccc2n1S(=O)(=O)c1ccccc1)c1ccccc1
inactive: UO-31 36.3 µM | 786-0 67 µM | A498 80.9 µM | HOP-62 56.5 µM | SF-268 42.4 µM | LOX IMVI > 100 µM | COLO 205 53.5 µM | SN12C 65.5 µM | SK-MEL-5 47.8 µM | OVCAR-8 55 µM | UACC-62 26.7 µM | MDA-N 56.2 µM | CAKI-1 65.8 µM | MDA-MB-435 36.8 µM | HT-29 44 µM | UACC-257 45 µM

CC1=CC(=O)/C(=C/n2c(=S)[nH]c3cc(C)ccc32)C(=O)O1
inactive: UO-31 > 100 µM | 786-0 > 100 µM | HOP-62 > 100 µM | MCF7 > 100 µM | SF-268 > 100 µM | LOX IMVI > 100 µM | COLO 205 > 100 µM | SN12C > 100 µM | SF-539 > 100 µM | SK-MEL-5 > 100 µM | OVCAR-8 > 100 µM | UACC-62 > 100 µM | MDA-N > 100 µM | CAKI-1 > 100 µM | MDA-MB-435 > 100 µM | HL-60 55.6 µM | HT-29 > 100 µM | UACC-257 > 100 µM

CC(O)C1(CNc2cc(Cl)nc(N)n2)CCC1 (configuration not stated)
inactive: UO-31 > 100 µM | 786-0 > 100 µM | HOP-62 > 100 µM | MCF7 > 100 µM | LOX IMVI > 100 µM | SN12C > 100 µM | SF-539 > 100 µM | SK-MEL-5 70.1 µM | OVCAR-8 > 100 µM | UACC-62 89.9 µM | MDA-N > 100 µM | CAKI-1 > 100 µM | MDA-MB-435 > 100 µM | HL-60 > 100 µM | HT-29 > 100 µM | UACC-257 37.8 µM

COc1ccc(C2(c3ccc(OC)cc3)OC(=O)c3cccc4cccc2c34)cc1
inactive: UO-31 > 100 µM | 786-0 5.41 µM | A498 > 100 µM | HOP-62 6.98 µM | MCF7 4.78 µM | SF-268 > 100 µM | LOX IMVI 8.89 µM | COLO 205 2.81 µM | SN12C 23.8 µM | SF-539 3.48 µM | SK-MEL-5 5.25 µM | OVCAR-8 15.7 µM | UACC-62 5.28 µM | CAKI-1 2.96 µM | MDA-MB-435 2.69 µM | HT-29 2.4 µM | UACC-257 > 100 µM

CC(C)CC1[C@@H](OCc2ccccc2)COS(=O)N1Cc1ccccc1 (some centres not stated)
inactive: UO-31 34.6 µM | 786-0 31.2 µM | HOP-62 56.6 µM | MCF7 41.9 µM | SF-268 32.6 µM | LOX IMVI 24.8 µM | COLO 205 57 µM | SN12C 57.8 µM | SK-MEL-5 33.5 µM | OVCAR-8 39 µM | UACC-62 60 µM | MDA-N 52.8 µM | MDA-MB-435 31.5 µM | HT-29 15.6 µM | UACC-257 30.7 µM

COc1ccccc1C(=O)OCC1CCCN2CCCCC12 (configuration not stated)
inactive: UO-31 > 100 µM | 786-0 > 100 µM | A498 > 100 µM | MCF7 42.4 µM | SF-268 36.5 µM | LOX IMVI 17.1 µM | COLO 205 21.1 µM | SN12C 29.7 µM | SF-539 > 100 µM | SK-MEL-5 34.4 µM | OVCAR-8 21 µM | UACC-62 31.7 µM | CAKI-1 > 100 µM | MDA-MB-435 64.3 µM | HL-60 21.1 µM | HT-29 16.6 µM | UACC-257 31 µM

CCCCNC1CCC2(SCCS2)c2[nH]c3ccccc3c21 (configuration not stated)
inactive: UO-31 20.4 µM | 786-0 4.53 µM | A498 20.8 µM | HOP-62 > 53.8 µM | MCF7 3.11 µM | SF-268 19.9 µM | LOX IMVI 2.64 µM | COLO 205 17.5 µM | SN12C 37.7 µM | SF-539 13.7 µM | SK-MEL-5 5.14 µM | OVCAR-8 14.4 µM | UACC-62 20.2 µM | CAKI-1 2.04 µM | MDA-MB-435 5.21 µM | HL-60 3.16 µM | HT-29 25.2 µM | UACC-257 4.09 µM

COC(=O)c1cnn2c1ccc1ccccc12
inactive: UO-31 47.8 µM | 786-0 > 100 µM | A498 > 100 µM | HOP-62 > 100 µM | SF-268 > 100 µM | LOX IMVI > 100 µM | COLO 205 > 100 µM | SN12C > 100 µM | SF-539 > 100 µM | SK-MEL-5 > 100 µM | OVCAR-8 > 100 µM | UACC-62 > 100 µM | MDA-N > 100 µM | CAKI-1 > 100 µM | MDA-MB-435 > 100 µM | HL-60 45.9 µM | HT-29 > 100 µM | UACC-257 > 100 µM

O=C(CSCC(=O)N/N=C\c1ccc(F)cc1F)N/N=C\c1ccc(F)cc1F
inactive: UO-31 > 100 µM | 786-0 > 100 µM | A498 > 100 µM | HOP-62 > 100 µM | MCF7 > 100 µM | SF-268 > 100 µM | LOX IMVI > 100 µM | COLO 205 > 100 µM | SN12C > 100 µM | SF-539 > 100 µM | SK-MEL-5 > 100 µM | OVCAR-8 > 100 µM | UACC-62 > 100 µM | CAKI-1 > 100 µM | MDA-MB-435 > 100 µM | HL-60 > 100 µM | HT-29 > 100 µM | UACC-257 > 100 µM

O=C(NNc1nc(-c2ccccc2)cs1)Nc1ccccc1
inactive: UO-31 25.4 µM | 786-0 30.2 µM | HOP-62 18.7 µM | MCF7 25.3 µM | SF-268 27.5 µM | COLO 205 19.6 µM | SN12C 30.9 µM | SK-MEL-5 20.7 µM | OVCAR-8 22.7 µM | UACC-62 19.4 µM | MDA-N 24.2 µM | CAKI-1 43.3 µM | MDA-MB-435 22.2 µM | HT-29 29 µM | UACC-257 20.7 µM

NC(CCc1ncc(-c2ccccc2)s1)C(=O)O (configuration not stated)
inactive: UO-31 45.3 µM | 786-0 > 100 µM | A498 > 100 µM | LOX IMVI > 100 µM | COLO 205 > 100 µM | SN12C > 100 µM | SF-539 > 100 µM | SK-MEL-5 > 100 µM | OVCAR-8 > 100 µM | UACC-62 > 100 µM | CAKI-1 > 100 µM | HL-60 > 100 µM | HT-29 > 100 µM | UACC-257 > 100 µM

Clc1nc(Cl)c(Cc2ccccc2)c(Cl)n1
inactive: UO-31 18.2 µM | 786-0 2.36 µM | HOP-62 6.17 µM | MCF7 5.12 µM | SF-268 18.6 µM | LOX IMVI 3.03 µM | COLO 205 6.46 µM | SN12C 4.39 µM | SF-539 5.3 µM | SK-MEL-5 2.37 µM | OVCAR-8 4.34 µM | UACC-62 3.69 µM | MDA-N 3.59 µM | MDA-MB-435 4.32 µM | HL-60 7.45 µM | HT-29 3.94 µM | UACC-257 > 10 µM

O=C(c1cc(Cl)ccc1Cl)N1CCN(c2cccc(Cl)c2)CC1
inactive: UO-31 19.7 µM | 786-0 15.3 µM | A498 12.7 µM | HOP-62 16 µM | MCF7 12.4 µM | SF-268 27.9 µM | LOX IMVI 10.9 µM | SN12C 4.09 µM | SF-539 13.6 µM | SK-MEL-5 6.59 µM | OVCAR-8 14.8 µM | MDA-N 1.87 µM | CAKI-1 17.7 µM | HL-60 38.4 µM | HT-29 12.4 µM | UACC-257 15.2 µM

COc1cc(/C=C/C(=O)CC(=O)/C=C/c2cc(C)c(O)c(OC)c2)cc(C)c1O
inactive: UO-31 > 100 µM | 786-0 > 100 µM | A498 > 100 µM | HOP-62 > 100 µM | MCF7 52.8 µM | SF-268 > 100 µM | LOX IMVI > 100 µM | COLO 205 > 100 µM | SN12C > 100 µM | SF-539 > 100 µM | SK-MEL-5 > 100 µM | OVCAR-8 > 100 µM | UACC-62 > 100 µM | CAKI-1 > 100 µM | MDA-MB-435 > 100 µM | HL-60 38.9 µM | HT-29 > 100 µM | UACC-257 > 100 µM

CCOc1ccc2nc(NC(NC(=O)c3cccnc3)(C(F)(F)F)C(F)(F)F)sc2c1
inactive: UO-31 6.84 µM | 786-0 26.5 µM | MCF7 25.5 µM | SF-268 56.8 µM | COLO 205 34.1 µM | SN12C 25.2 µM | SF-539 49.2 µM | SK-MEL-5 20.5 µM | OVCAR-8 26.7 µM | UACC-62 25.6 µM | MDA-N 15.6 µM | CAKI-1 38.3 µM | MDA-MB-435 22.2 µM | HL-60 32.4 µM | HT-29 14.1 µM | UACC-257 25.5 µM

CCCOP1(=O)C=CC(Cl)=C(C)C1 (configuration not stated)
inactive: UO-31 81.7 µM | 786-0 27.7 µM | A498 82.8 µM | HOP-62 > 100 µM | SF-268 46.6 µM | LOX IMVI 32.3 µM | COLO 205 18.4 µM | SN12C 69.5 µM | SF-539 > 46 µM | SK-MEL-5 45.6 µM | OVCAR-8 21.1 µM | UACC-62 19.1 µM | CAKI-1 32.4 µM | HL-60 7.53 µM | HT-29 55.3 µM | UACC-257 26.9 µM

COc1ccc(C2Oc3c(cccc3OC)C=C2[N+](=O)[O-])cc1OC (configuration not stated)
inactive: UO-31 14.7 µM | 786-0 3.74 µM | HOP-62 21.2 µM | MCF7 4.12 µM | SF-268 15.9 µM | LOX IMVI 2.49 µM | COLO 205 13.7 µM | SN12C 5.55 µM | SK-MEL-5 4.14 µM | OVCAR-8 8.93 µM | UACC-62 4.16 µM | MDA-N 5.19 µM | CAKI-1 13.8 µM | MDA-MB-435 2.16 µM | HL-60 2.62 µM | HT-29 18.5 µM | UACC-257 3.71 µM

— ChEMBL document CHEMBL1201862, “PubChem BioAssay data set” (2004)
